Earlier results in patent publication US20030232787A1, “Combinations of an endothelin receptor antagonist and an antiepileptic compound having pain alleviating properties or analgesic” (priority 2002, published 2003).
Square brackets hold non-standard residues; d marks the D form. Peptide text beside a SMILES is read from it.

Assays:
[1] = tested on: mouse model of inflammation and hyperalgesia; conditions: Piovezan et al. 2000; cited from earlier work
[2] = tested on: streptozotocin-induced static allodynia; conditions: rat; Field et al.; cited from earlier work
[3] = tested on: rat model of diabetic neuropathy; conditions: Jarvis et al. 2000; cited from earlier work

For `CC(C)C[C@@H]1NC(=O)[C@@H](C(C)C)NC(=O)[C@@H]2CCCN2C(=O)[C@@H](CC(=O)O)NC(=O)[C@@H](Cc2c[nH]c3ccccc23)NC1=O` [BQ-123] (cyclo(L[dW][dD]P[dV])), the effect on pain [1] is given as “alleviate pain”.

In the case of `CC(NC(=O)C(C)(Cc1c[nH]c2ccccc12)NC(=O)OCc1cc2ccccc2o1)c1ccccc1` (stereo not drawn) [[2-(1H-indol-3-yl)-1-methyl-1-(1-phenyl-ethylcarbamoyl)-ethyl]-carbamic acid benzofuran-2-ylmethyl ester], the “effect on maintenance of streptozotocin-induced static allodynia” value [2] is listed as “block the maintenance of streptozotocin-induced static allodynia”.

In the case of `CCCCN(CCCC)C(=O)CN1C[C@H](c2ccc3c(c2)OCO3)[C@@H](C(=O)O)[C@@H]1c1ccc(OC)cc1` [ABT-627, 2R-(4-Methoxyphenyl)-4S-(1,3-benzodioxol-5-yl)-1-(N,N-di(n-butyl)aminocarbonyl-methyl)-pyrrolidine-3R-carboxylic acid], the effect on pain [3] is given as “attenuate pain”.
